Experimental data published in patent publication US20240317721A1, “PYRAZOLYL DERIVATIVES AS INHIBITORS OF THE KRAS MUTANT PROTEIN” (NOVARTIS AG, priority 2021, published 2024).

Target: KRasG12C (M1-K169, biotinylated on the N-terminus) (Homo sapiens (Human), UniProt P01116, G12C)
Experiment: Covalent competition assay: scintillation proximity assay (SPA) quantifying covalent modification of KRASG12C
Format: binding
Conditions: competition with radiolabeled covalent probe (Compound B/Compound A), 2 hours incubation, 10 nM KRasG12C
Method in brief: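 Scintillation proximity readout after streptavidin bead capture (30 min) of biotinylated KRasG12C(M1-K169):GDP, 10 nM final, which was covalently labelled over 2 h by 25 nM radio-probe plus 475 nM cold probe unless blocked by compound.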

| Compound | IC50 |
| --- | --- |
| C=CC(=O)N1CC2(CC(n3nc(N4CCC(N(C)[C@@H]5CCOC5)CC4(C)C)c(-c4c(Cl)c(C)cc5[nH]ncc45)c3C)C2)C1 (single isomer, unassigned) [Example 84a] | > 5000 nM |
| C=CC(=O)N1CC2(CC(n3nc(N4CCN(C[C@@H]5COCCO5)C[C@]4(C)CCOC)c(-c4c(Cl)c(C)cc5[nH]ncc45)c3C)C2)C1 (single isomer, unassigned) [Example 85a] | 5000 nM |
| C=CC(=O)N1CC2(CC(n3nc(N4CCN(C5COC5)C[C@]4(C)CCOC)c(-c4c(Cl)c(C)cc5[nH]ncc45)c3C)C2)C1 (single isomer, unassigned) [Example 86a] | 2300 nM |
| C=CC(=O)N1CC2(CC(n3nc(N4CCN(C5CCOCC5)C[C@]4(C)CCOC)c(-c4c(Cl)c(C)cc5[nH]ncc45)c3C)C2)C1 (single isomer, unassigned) [Example 87b] | 1500 nM |
| C=CC(=O)N1CC2(CC(n3nc(N4CCCC4(C)C)c(-c4c(Cl)c(C)cc5[nH]ncc45)c3C)C2)C1 (single isomer, unassigned) [Example 88a, 1-(6-(4-(5-chloro-6-methyl-1H-indazol-4-yl)-3-(2,2-dimethylpyrrolidin-1-yl)-5-methyl-1H-pyrazol-1-yl)-2-azaspiro[3.3]heptan-2-yl)prop-2-en-1-one] | > 5000 nM |
| C=CC(=O)N1CC2(CC(n3nc(N4CCCC4(C)C)c(-c4c(Cl)c(C)cc5[nH]ncc45)c3C)C2)C1 (single isomer, unassigned) [Example 88b, 1-(6-(4-(5-chloro-6-methyl-1H-indazol-4-yl)-3-(2,2-dimethylpyrrolidin-1-yl)-5-methyl-1H-pyrazol-1-yl)-2-azaspiro[3.3]heptan-2-yl)prop-2-en-1-one] | 467 nM |
| C=CC(=O)N1CC2(CC(n3nc(N4CCN(C[C@@H]5COCCO5)C[C@]4(C)CC)c(-c4c(Cl)c(Cl)cc5[nH]ncc45)c3C)C2)C1 (single isomer, unassigned) [Example 89a] | 3400 nM |
| C=CC(=O)N1CC2(CC(n3nc(N4CCN(C5CCOCC5)C[C@]4(C)COC)c(-c4c(Cl)c(C)cc5[nH]nc(N)c45)c3C)C2)C1 (single isomer, unassigned) [Example 90b] | 558 nM |
| C=CC(=O)N1CC2(CC(n3nc(N4CCC5(CN(C6COC6)C5)CC4(C)C)c(-c4c(Cl)c(C)cc5[nH]ncc45)c3C)C2)C1 (single isomer, unassigned) [Example 91a, 1-(6-(4-(5-chloro-6-methyl-1H-indazol-4-yl)-3-(6,6-dimethyl-2-(oxetan-3-yl)-2,7-diazaspiro[3.5]nonan-7-yl)-5-methyl-1H-pyrazol-1-yl)-2-azaspiro[3.3]heptan-2-yl)prop-2-en-1-one] | 2900 nM |
| C=CC(=O)N1CC2(CC(n3nc(N4CCC5(CN(C6COC6)C5)CC4(C)C)c(-c4c(Cl)c(Cl)cc5[nH]ncc45)c3C)C2)C1 (single isomer, unassigned) [Example 92a, 1-(6-(4-(5,6-dichloro-1H-indazol-4-yl)-3-(6,6-dimethyl-2-(oxetan-3-yl)-2,7-diazaspiro[3.5]nonan-7-yl)-5-methyl-1H-pyrazol-1-yl)-2-azaspiro[3.3]heptan-2-yl)prop-2-en-1-one] | 2100 nM |
| C=CC(=O)N1CC2(CC(n3nc(N4CCC5(CN(C6COC6)C5)CC45CCC5)c(-c4c(Cl)c(C)cc5[nH]ncc45)c3C)C2)C1 (single isomer, unassigned) [Example 93a, 1-(6-(4-(5-chloro-6-methyl-1H-indazol-4-yl)-5-methyl-3-(2-(oxetan-3-yl)-2,10-diazadispiro[3.1.3^6.3^4]dodecan-10-yl)-1H-pyrazol-1-yl)-2-azaspiro[3.3]heptan-2-yl)prop-2-en-1-one] | > 5000 nM |
| C=CC(=O)N1CC2(CC(n3nc(N4CCN(C(C)=O)C[C@@H]4CC)c(-c4c(Cl)c(C)cc5[nH]ncc45)c3C)C2)C1 (single isomer, unassigned) [Example 94a] | > 50000 nM |
| C=CC(=O)N1CC2(CC(n3nc(N4CCN(C(C)=O)C[C@@H]4CC)c(-c4c(Cl)c(C)cc5[nH]ncc45)c3C)C2)C1 (single isomer, unassigned) [Example 94b] | 64 nM |
| C=CC(=O)N1CC2(CC(n3nc(N4CCN(C(C)=O)C[C@@H]4C(C)C)c(-c4c(Cl)c(C)cc5[nH]ncc45)c3C)C2)C1 (single isomer, unassigned) [Example 95a] | > 5000 nM |
| C=CC(=O)N1CC2(CC(n3nc(N4CCN(C(C)=O)C[C@@H]4C(C)C)c(-c4c(Cl)c(C)cc5[nH]ncc45)c3C)C2)C1 (single isomer, unassigned) [Example 95b] | 373 nM |

The next compounds have a lower IC50 than those just listed; values first:

| IC50 | Compound |
| --- | --- |
| 14 nM | C=CC(=O)N1CC2(CC(n3nc(N4CCC(N(C)[C@@H]5CCOC5)CC4(C)C)c(-c4c(Cl)c(C)cc5[nH]ncc45)c3C)C2)C1 (single isomer, unassigned) [Example 84b] |
| 8 nM | C=CC(=O)N1CC2(CC(n3nc(N4CCN(C[C@@H]5COCCO5)C[C@]4(C)CCOC)c(-c4c(Cl)c(C)cc5[nH]ncc45)c3C)C2)C1 (single isomer, unassigned) [Example 85b] |
| 8 nM | C=CC(=O)N1CC2(CC(n3nc(N4CCN(C5COC5)C[C@]4(C)CCOC)c(-c4c(Cl)c(C)cc5[nH]ncc45)c3C)C2)C1 (single isomer, unassigned) [Example 86b] |
| 13 nM | C=CC(=O)N1CC2(CC(n3nc(N4CCN(C5CCOCC5)C[C@]4(C)CCOC)c(-c4c(Cl)c(C)cc5[nH]ncc45)c3C)C2)C1 (single isomer, unassigned) [Example 87a] |
| < 5 nM | C=CC(=O)N1CC2(CC(n3nc(N4CCN(C[C@@H]5COCCO5)C[C@]4(C)CC)c(-c4c(Cl)c(Cl)cc5[nH]ncc45)c3C)C2)C1 (single isomer, unassigned) [Example 89b] |
| 23 nM | C=CC(=O)N1CC2(CC(n3nc(N4CCN(C5CCOCC5)C[C@]4(C)COC)c(-c4c(Cl)c(C)cc5[nH]nc(N)c45)c3C)C2)C1 (single isomer, unassigned) [Example 90a] |
| 13 nM | C=CC(=O)N1CC2(CC(n3nc(N4CCC5(CN(C6COC6)C5)CC4(C)C)c(-c4c(Cl)c(C)cc5[nH]ncc45)c3C)C2)C1 (single isomer, unassigned) [Example 91b, 1-(6-(4-(5-chloro-6-methyl-1H-indazol-4-yl)-3-(6,6-dimethyl-2-(oxetan-3-yl)-2,7-diazaspiro[3.5]nonan-7-yl)-5-methyl-1H-pyrazol-1-yl)-2-azaspiro[3.3]heptan-2-yl)prop-2-en-1-one] |
| 7 nM | C=CC(=O)N1CC2(CC(n3nc(N4CCC5(CN(C6COC6)C5)CC4(C)C)c(-c4c(Cl)c(Cl)cc5[nH]ncc45)c3C)C2)C1 (single isomer, unassigned) [Example 92b, 1-(6-(4-(5,6-dichloro-1H-indazol-4-yl)-3-(6,6-dimethyl-2-(oxetan-3-yl)-2,7-diazaspiro[3.5]nonan-7-yl)-5-methyl-1H-pyrazol-1-yl)-2-azaspiro[3.3]heptan-2-yl)prop-2-en-1-one] |
| 12 nM | C=CC(=O)N1CC2(CC(n3nc(N4CCC5(CN(C6COC6)C5)CC45CCC5)c(-c4c(Cl)c(C)cc5[nH]ncc45)c3C)C2)C1 (single isomer, unassigned) [Example 93b, 1-(6-(4-(5-chloro-6-methyl-1H-indazol-4-yl)-5-methyl-3-(2-(oxetan-3-yl)-2,10-diazadispiro[3.1.3^6.3^4]dodecan-10-yl)-1H-pyrazol-1-yl)-2-azaspiro[3.3]heptan-2-yl)prop-2-en-1-one] |
